{"source": "paper PMC12471299", "about": "“Secondary Metabolites of the Marine Sponge-Derived Fungus Aspergillus subramanianii 1901NT-1.40.2 and Their Antimicrobial and Anticancer Activities” (Marine Drugs, 2025)", "key": {"E. coli": {"test_system": "E. coli", "parameters": "method as in PMID 28498358", "conditions": "cited from earlier work"}, "HaCaT keratinocytes": {"test_system": "HaCaT keratinocytes", "experiment": "Cell viability assay (MTT)", "type": "cell-based, human", "description": "(§1) Rat cardiomyocyte H9c2 cells were kindly provided by Prof. Dr. Gunhild von Amsberg from the Martini-Klinik Prostate Cancer Center, University Hospital Hamburg-Eppendorf, Hamburg, Germany. The human HaCaT keratinocyte cell line was kindly provided by Prof. N. Fusenig (Cancer Research Centre, Heidelberg, Germany). Non-cancerous human breast epithelial MCF-10A cells were kindly provided by Dr. Irina Zhitnyak (N. N. Blokhin National Medical Research Center of Oncology, Moscow, Russia). Human breast cancer MCF-7 HTB-22 and MDA-MB-231 cells were obtained from the ATTC (Manassas, VA, USA).\n(§2) H9c2 and HaCaT cells were cultured in DMEM with 10% fetal bovine serum and 1% penicillin/streptomycin (BioloT, St. Petersburg, Russia). MCF-7 and MDA-MB-231 cells were cultured in MEM (BioloT, St. Petersburg, Russia) with 10% fetal bovine serum (FBS) and 1% penicillin/streptomycin (BioloT, St. Petersburg, Russia). MCF 10A cells were cultured in DMEM F12 medium (BioloT, St. Petersburg, Russia) supplemented with 20% FBS, 20 ng/mL hrEGF (Sci-Store, Moscow, Russia), and 1% penicillin/streptomycin (BioloT, St. Petersburg, Russia). All cells were cultured at 37 °C in a humidified atmosphere containing 5% CO2.\n(§3) H9c2 cells were seeded at a concentration of 3 × 10^3 cells/well. MCF-10A, MCF-7, and MDA-MB-231 cells were seeded at 5 × 10^3 cells/well, and HaCaT cells were seeded at 1 × 10^4 cells/well. The experiments were initiated after 24 h.\n(§4) Compounds at concentrations up to 100 µM were added to the wells for 24h or 48 h, and the viability of the cells was measured using an MTT (3-(4,5-dimethylthiazol-2-yl)-2,5-diphenyltetrazolium bromide) assay, which was performed according to the manufacturer’s instructions (Sigma-Aldrich, Munich, Germany). […] DMSO was used as a control. The results are presented as percentages of the control data."}, "[1]": {"test_system": "MCF-10A breast epithelial cells", "experiment": "Cell viability assay (MTT)", "type": "cell-based, human", "conditions": "MCF10A", "description": "as §1, §2, §3, §4"}, "[2]": {"experiment": "Cell viability assay (MTT)", "type": "cell-based, human", "conditions": "human, read-out: Cytotoxicity IC50", "description": "as §1, §2, §3, §4"}, "[3]": {"test_system": "MDA-MB-231 breast cancer cells", "experiment": "Cell viability assay (MTT)", "type": "cell-based, human", "description": "as §1, §2, §3, §4"}, "[4]": {"test_system": "MCF-7 breast cancer cells", "experiment": "Cell viability assay (MTT)", "type": "cell-based, human", "description": "as §1, §2, §3, §4"}, "[5]": {"test_system": "Escherichia coli VKPM (B-7935)", "experiment": "Antimicrobial assay, growth inhibition (optical density)", "type": "cell-based", "conditions": "Escherichia coli; E. coli; read-out: total inhibition (MIC100) of growth", "experimental": "(§5) The Gram-positive bacterial Staphylococcus aureus ATCC 21027, Gram-negative bacterial Escherichia coli VKPM (B-7935), and yeast-like fungal Candida albicans KMM 455 strains were fermented on solid medium Mueller Hinton broth with agar (16.0 g/L) in a Petri dish at 37 °C for 24 h. The antimicrobial activity of the compound was tested at concentrations ranging from 100 µM and lower. The effect of the compound on bacterial growth was estimated as described by. Gentamicin and amphotericin B were used as positive controls against S. aureus, E. coli, and C. albicans, and a 1% dimethyl sulfoxide (DMSO) solution in PBS was used as a negative control. The optical density of the bacterial suspension after 18 h was measured at λ = 620 nm. The effect of the compound on biofilm formation for 18 h was tested using MTT reagent (Sigma-Aldrich, St. Louis, MO, USA) in accordance with. The optical density of the obtained solution was measured at λ = 570 nm. A Multiskan FS spectrophotometer (Thermo Scientific Inc., Beverly, MA, USA) was used for both assays. The results were calculated as percentages of the control data and presented as minimal concentrations reduced by 50% of growth or biofilm formation (MIC50)."}, "Candida albicans KMM 455 [6]": {"test_system": "Candida albicans KMM 455", "experiment": "Antimicrobial assay, growth inhibition (optical density)", "type": "cell-based", "conditions": "Candida albicans, C. albicans", "experimental": "as §5"}, "[7]": {"test_system": "Staphylococcus aureus ATCC 21027", "experiment": "Antimicrobial assay, growth inhibition (optical density)", "type": "cell-based", "conditions": "Staphylococcus aureus, ATCC21027; S. aureus; read-out: total inhibition (MIC100) of growth", "experimental": "as §5"}, "H9c2 cardiomyocytes": {"test_system": "H9c2 cardiomyocytes", "experiment": "Cell viability assay (MTT)", "type": "cell-based, rat", "description": "as §1, §2, §3, §4"}, "[8]": {"experiment": "Cell viability assay (MTT)", "type": "cell-based, rat", "conditions": "rat, H9c2 cardiomyocytes, read-out: Cytotoxicity IC50", "description": "as §1, §2, §3, §4"}, "[9]": {"test_system": "Escherichia coli VKPM (B-7935)", "experiment": "Biofilm formation assay (MTT)", "type": "cell-based", "conditions": "E. coli", "experimental": "as §5"}, "Candida albicans KMM 455 [10]": {"test_system": "Candida albicans KMM 455", "experiment": "Biofilm formation assay (MTT)", "type": "cell-based", "conditions": "C. albicans", "experimental": "as §5"}, "[11]": {"test_system": "Staphylococcus aureus ATCC 21027", "experiment": "Biofilm formation assay (MTT)", "type": "cell-based", "conditions": "S. aureus", "experimental": "as §5"}}, "note": "Read-outs that look alike come from different tables or passages of the source."}
{"smiles": "C=C(C)C1CCC23C(O)CCC(C)C2(C)CCC(C)C3C1c1c[nH]c2ccccc12", "note": "(stereo not drawn) [Compound 5, 10,23-dihydro-24,25-dehydroaflavinine]", "values": [{"measurement": "MIC50", "setting": "E. coli", "value": 2.0, "unit": "µg/mL"}, {"measurement": "cell viability", "setting": "HaCaT keratinocytes; 24 h, 1.0 µM", "value": "92.3 ± 5.0 % of control"}, {"measurement": "cell viability", "setting": "HaCaT keratinocytes; 24 h, 10.0 µM", "value": "88.3 ± 8.6 % of control"}, {"measurement": "cell viability", "setting": "HaCaT keratinocytes; 24 h, 100.0 µM", "value": "7.8 ± 0.3 % of control"}, {"measurement": "cell viability", "setting": "HaCaT keratinocytes; 48 h, 1.0 µM", "value": "72.2 ± 4.3 % of control"}, {"measurement": "cell viability", "setting": "HaCaT keratinocytes; 48 h, 10.0 µM", "value": "56.8 ± 4.8 % of control"}, {"measurement": "cell viability", "setting": "HaCaT keratinocytes; 48 h, 100.0 µM", "value": "16.8 ± 0.2 % of control"}, {"measurement": "cell viability", "setting": "[1]; 24 h, 1.0 µM", "value": "101.7 ± 4.4 % of control"}, {"measurement": "cell viability", "setting": "[1]; 24 h, 10.0 µM", "value": "95.4 ± 2.3 % of control"}, {"measurement": "cell viability", "setting": "[1]; 24 h, 100.0 µM", "value": "16.1 ± 8.6 % of control"}, {"measurement": "cell viability", "setting": "[1]; 48 h, 1.0 µM", "value": "92.0 ± 0.9 % of control"}, {"measurement": "cell viability", "setting": "[1]; 48 h, 10.0 µM", "value": "93.9 ± 6.4 % of control"}, {"measurement": "cell viability", "setting": "[1]; 48 h, 100.0 µM", "value": "9.9 ± 0.2 % of control"}, {"measurement": "IC50 at 24 h", "setting": "[2]; HaCaT keratinocytes, 24 h", "value": "52.8 ± 1.1", "unit": "µM"}, {"measurement": "IC50 at 48 h", "setting": "[2]; HaCaT keratinocytes, 48 h", "value": "25.3 ± 0.8", "unit": "µM"}, {"measurement": "IC50 at 24 h", "setting": "[2]; MCF-7 breast cancer cells, MCF-7, 24 h", "value": "58.6 ± 4.2", "unit": "µM"}, {"measurement": "IC50 at 48 h", "setting": "[2]; MCF-7 breast cancer cells, MCF-7, 48 h", "value": "53.5 ± 1.1", "unit": "µM"}, {"measurement": "IC50 at 24 h", "setting": "[2]; MCF-10A breast epithelial cells, MCF10A, 24 h", "value": "61.5 ± 1.3", "unit": "µM"}, {"measurement": "IC50 at 48 h", "setting": "[2]; MCF-10A breast epithelial cells, MCF10A, 48 h", "value": "57.1 ± 2.8", "unit": "µM"}, {"measurement": "IC50 at 24 h", "setting": "[2]; MDA-MB-231 breast cancer cells, MDA-MB-231, 24 h", "value": "62.9 ± 3.1", "unit": "µM"}, {"measurement": "IC50 at 48 h", "setting": "[2]; MDA-MB-231 breast cancer cells, MDA-MB-231, 48 h", "value": "61.3 ± 2.1", "unit": "µM"}, {"measurement": "cell viability", "setting": "[3]; MDA-MB-231, 24 h, 1.0 µM", "value": "96.3 ± 7.5 % of control"}, {"measurement": "cell viability", "setting": "[3]; MDA-MB-231, 24 h, 10.0 µM", "value": "91.3 ± 6.1 % of control"}, {"measurement": "cell viability", "setting": "[3]; MDA-MB-231, 24 h, 100.0 µM", "value": "21.1 ± 0.9 % of control"}, {"measurement": "cell viability", "setting": "[3]; MDA-MB-231, 48 h, 1.0 µM", "value": "103.2 ± 2.4 % of control"}, {"measurement": "cell viability", "setting": "[3]; MDA-MB-231, 48 h, 10.0 µM", "value": "102.3 ± 4.1 % of control"}, {"measurement": "cell viability", "setting": "[3]; MDA-MB-231, 48 h, 100.0 µM", "value": "10.6 ± 0.2 % of control"}, {"measurement": "cell viability", "setting": "[4]; MCF-7, 24 h, 1.0 µM", "value": "100.5 ± 0.9 % of control"}, {"measurement": "cell viability", "setting": "[4]; MCF-7, 24 h, 10.0 µM", "value": "97.0 ± 2.6 % of control"}, {"measurement": "cell viability", "setting": "[4]; MCF-7, 24 h, 100.0 µM", "value": "10.0 ± 1.0 % of control"}, {"measurement": "cell viability", "setting": "[4]; MCF-7, 48 h, 1.0 µM", "value": "78.5 ± 9.9 % of control"}, {"measurement": "cell viability", "setting": "[4]; MCF-7, 48 h, 10.0 µM", "value": "81.6 ± 3.3 % of control"}, {"measurement": "cell viability", "setting": "[4]; MCF-7, 48 h, 100.0 µM", "value": "21.2 ± 0.1 % of control"}, {"measurement": "MIC", "setting": "[5]", "value": "12.4 ± 1.02", "unit": "µM"}, {"measurement": "MIC50", "setting": "Candida albicans KMM 455 [6]; KMM455, 18 h, 18 h", "value": "7 to 10", "unit": "µM"}, {"measurement": "MIC", "setting": "Candida albicans KMM 455 [6]; KMM455, read-out: total inhibition (MIC100) of growth", "value": "11.5 ± 0.9", "unit": "µM"}, {"measurement": "MIC", "setting": "[7]", "value": "6.85 ± 0.53", "unit": "µM"}, {"measurement": "cell viability", "setting": "H9c2 cardiomyocytes; H9c2, 24 h, 1.0 µM", "value": "101.9 ± 2.9 % of control"}, {"measurement": "cell viability", "setting": "H9c2 cardiomyocytes; H9c2, 24 h, 10.0 µM", "value": "50.5 ± 1.8 % of control"}, {"measurement": "cell viability", "setting": "H9c2 cardiomyocytes; H9c2, 24 h, 100.0 µM", "value": "33.6 ± 0.3 % of control"}, {"measurement": "cell viability", "setting": "H9c2 cardiomyocytes; H9c2, 48 h, 1.0 µM", "value": "105.6 ± 3.4 % of control"}, {"measurement": "cell viability", "setting": "H9c2 cardiomyocytes; H9c2, 48 h, 10.0 µM", "value": "94.0 ± 3.0 % of control"}, {"measurement": "cell viability", "setting": "H9c2 cardiomyocytes; H9c2, 48 h, 100.0 µM", "value": "10.1 ± 0.2 % of control"}, {"measurement": "IC50 at 24 h", "setting": "[8]; H9c2, 24 h", "value": "9.8 ± 1.3", "unit": "µM"}, {"measurement": "IC50 at 48 h", "setting": "[8]; H9c2, 48 h", "value": "57.2 ± 3", "unit": "µM"}, {"measurement": "MIC100 of biofilm formation", "setting": "[9]", "value": "23.08 ± 2.00", "unit": "µM"}, {"measurement": "MIC100 of biofilm formation", "setting": "Candida albicans KMM 455 [10]", "value": "12.01 ± 1.01", "unit": "µM"}, {"measurement": "MIC100 of biofilm formation", "setting": "[11]", "value": "10.45 ± 0.96", "unit": "µM"}]}
